{"source": "patent US5001149A", "about": "“Azadirachtin derivative insecticides” (NPI, priority 1987, dated 1991)", "key": {"[1]": {"test_system": "fifth-instar Heliothis virescens larvae", "experiment": "Relative activity of UV-irradiated compounds in inhibiting adult development", "format": "in vivo", "settings": "for Relative activity, inhibiting adult development: relative to non-irradiated", "description": "(§1) Azadirachtin and its derivatives listed above (1.0 mg/ml absolute ethanol) were placed individually in capped quartz NMR tubes (5×180 mm) and were irradiated with two UV germicidal lights (GE, G30T8, 200-280 nm, 30 W) 1.8 m from the source at room temperature for up to 400 h. The controls were identical samples protected from exposure to UV radiation by wrapping with aluminum foil. At selected time intervals, aliquots from both the controls (non-irradiated) and irradiated samples were removed for high-performance liquid chromatography (HPLC) analysis (vide infra) and bioassay.\n(§2) Individual larvae were injected per os on the first day of the fifth instar with 1.0 μg of one of the either irradiated or non-irradiated compounds dissolved in 1.0 μl of 75% aqueous ethanol.\n(§3) Relative activity of azadirachtin, 3deacetylazadirachtin,\n22,23dihydroazadirachtin, 2',3',22,23tetrahydroazadirachtin, all of which\nhad been exposed for 15, 30, 90, 200, and 400 hours to UV radiation, in\ninhibiting the adult development of fifthinstar Heliothis virescens\n(§4) larvae. Relative activity is defined as the percentage of larvae injected\nrelative to the percentage injected with its nonirradiated counterpart"}, "[2]": {"test_system": "fifth-instar Heliothis virescens larvae", "experiment": "Pupal and adult development of fifth-instar larvae injected orally with non-irradiated compounds", "format": "in vivo", "settings": "for mortality at 0.001 mg: Heliothis virescens, light or radiation study, po, read-out: % Mortality Prior to Adult Stage", "description": "as §2\nSuccessful and unsuccessful pupal and adult development of fifthinstar\nHeliothis Virescens larvae injected orally with 1.0 microgram of either\nazadirachtin, 3deacetylazadirachtin, 22,23dihydroazadirachtin, or\n2',3',22,23tetrahydroazadirachtin."}, "[3]": {"test_system": "fifth-instar Heliothis virescens larvae", "experiment": "Relative activity of UV-irradiated compounds in inhibiting pupal development (pupation)", "format": "in vivo", "settings": "for Relative activity, inhibiting pupal development: relative to non-irradiated", "description": "as §1, §2, §3\n22,23dihydroazadirachtin, and 2',3',22,23tetrahydroazadirachtin, all of\nwhich had been exposed for 15, 30, 90, 200, and 400 hours to UV radiation\ninhibiting the pupal development of fifthinstar Heliothis virescens\nas §4"}, "[4]": {"test_system": "first-instar Heliothis virescens larvae", "experiment": "Mortality and growth inhibition in first-instar Heliothis virescens larvae fed in an artificial diet", "format": "in vivo", "settings": "for LC50: Heliothis virescens, po, read-out: LC50 (concentration causing 50% mortality)", "from_the_text": "Mortality and growth inhibition in first-instar Heliothis\nvirescens larvae fed azadirachtin and eight derivatives in an\n^b LC50 values are the concentrations (ppm) causing 50%\n^c EC50 values are the concentrations (PPM) causing 50% growth\n^d Numbers in parentheses are the 95% confidence limits determined\nusing the methods of Litchfield and Wilcoxon, J. Pharmacol. Exp. Ther."}, "[5]": {"experiment": "Stability to UV irradiation by reversed phase HPLC", "format": "physicochemical", "description": "Stability of Azadirachtin derivatives was determined as follows:\nas §1\nAnalytical reversed phase HPLC was performed on a phenyl (5 μm) column run isocratically with acetonitrile-water (3:7) (Yamasaki et al.) Peaks were detected at 214 nm. The irradiated samples were compared with their corresponding non-UV-irradiated controls by measuring the height of the peak eluting at the appropriate Rt for each irradiated compound relative to each one's non-irradiated control. Results are expressed as the percent of the initial sample concentration remaining relative to the control. Each time point was done in at least triplicate fashion."}, "insect": {"test_system": "insect", "settings": "Kubo & Klocke; cited from earlier work"}, "insects": {"test_system": "insects", "settings": "Kubo & Klocke and other literature; cited from earlier work"}, "[6]": {"settings": "1.0 microgram per os, fifth instar, non-irradiated"}, "[7]": {"settings": "1.0 microgram per os, non-irradiated"}}, "note": "Entries after “also recorded” stand apart in the source; their conditions may differ.", "data": [{"molecule": "C/C=C(\\C)C(=O)OC1CC(OC(C)=O)C2(C(=O)OC)COC3C2C12COC(O)(C(=O)OC)C2C(C)(C12OC1(C)C1CC2OC2OCCC21O)C3O", "note": "(centres unmarked) [Compound 3, 22,23-dihydroazadirachtin]", "values": [{"measurement": "Relative activity, inhibiting adult development", "setting": "[1]; 15 h UV", "value": 103.5, "unit": "%"}, {"measurement": "Relative activity, inhibiting adult development", "setting": "[1]; 30 h UV", "value": 100.1, "unit": "%"}, {"measurement": "Relative activity, inhibiting adult development", "setting": "[1]; 90 h UV", "value": 103.5, "unit": "%"}, {"measurement": "ability to inhibit larvae from reaching the adult stage, in words", "setting": "[1]; 200 h UV", "value": "more so"}, {"measurement": "Relative activity, inhibiting adult development", "setting": "[1]; 200 h UV", "value": 69.0, "unit": "%"}, {"measurement": "Relative activity, inhibiting adult development", "setting": "[1]; 400 h UV", "value": 74.5, "unit": "%"}, {"measurement": "Number Unsuccessful Larvae-Pupae", "setting": "[2]; [6]", "value": 13}, {"measurement": "Number Unsuccessful Pupae-Adult", "setting": "[2]; [6]", "value": 4}, {"measurement": "inhibition of pupation, in words", "setting": "[2]; [7]", "value": "less effective"}, {"measurement": "mortality at 0.001 mg", "setting": "[2]", "value": 96.6, "unit": "%"}, {"measurement": "Relative activity, inhibiting pupal development", "setting": "[3]; 15 h UV", "value": 113.1, "unit": "%"}, {"measurement": "Relative activity, inhibiting pupal development", "setting": "[3]; 30 h UV", "value": 104.6, "unit": "%"}, {"measurement": "activity retained, in words", "setting": "[3]; 90 h UV", "value": "retained full activity"}, {"measurement": "Relative activity, inhibiting pupal development", "setting": "[3]; 90 h UV", "value": 100.0, "unit": "%"}, {"measurement": "ability to inhibit pupation, in words", "setting": "[3]; 200 h UV", "value": "did decline"}, {"measurement": "Relative activity, inhibiting pupal development", "setting": "[3]; 200 h UV", "value": 72.7, "unit": "%"}, {"measurement": "ability to inhibit pupation, in words", "setting": "[3]; 400 h UV", "value": "An even greater decline"}, {"measurement": "activity retained", "setting": "[3]; 400 h UV", "value": "approximately 50%"}, {"measurement": "Relative activity, inhibiting pupal development", "setting": "[3]; 400 h UV", "value": 49.1, "unit": "%"}, {"measurement": "ability to inhibit pupation, in words", "setting": "[3]; up to 90 h UV", "value": "not appreciably reduced"}, {"measurement": "LC50", "setting": "[4]", "value": 0.47, "unit": "µg/mL"}, {"measurement": "degradation, in words", "setting": "[5]", "value": "none of the three compounds remained in their original state"}, {"measurement": "reaction order of UV degradation, in words", "setting": "[5]", "value": "degraded in a first-order reaction"}, {"measurement": "degraded at 90 h", "setting": "[5]; absolute ethanol, uv", "value": "> 80", "unit": "%"}, {"measurement": "half-life", "setting": "[5]; absolute ethanol, uv", "value": 25, "unit": "h"}]}, {"molecule": "COC(=O)C1(O)OCC23C(O)CC(OC(C)=O)C4(C(=O)OC)COC(C42)C(O)C(C)(C24OC2(C)C2CC4OC4OCCC42O)C13", "note": "(centres unmarked) [Compound 7, 1-detigloyl-22,23dihydroazadirachtin]", "values": [{"measurement": "LC50", "setting": "[4]", "value": 2.4, "unit": "µg/mL"}]}, {"molecule": "CCC(C)C(=O)OC1CC(OC(C)=O)C2(C(=O)OC)COC3C2C12COC(O)(C(=O)OC)C2C(C)(C12OC1(C)C1CC2OC2OCCC21O)C3O", "note": "(centres unmarked) [Compound 8, 2',3',22,23-tetrahydroazadirachtin]", "values": [{"measurement": "Relative activity, inhibiting adult development", "setting": "[1]; 15 h UV", "value": 100.0, "unit": "%"}, {"measurement": "Relative activity, inhibiting adult development", "setting": "[1]; 30 h UV", "value": 100.0, "unit": "%"}, {"measurement": "Relative activity, inhibiting adult development", "setting": "[1]; 90 h UV", "value": 100.0, "unit": "%"}, {"measurement": "Relative activity, inhibiting adult development", "setting": "[1]; 200 h UV", "value": 100.0, "unit": "%"}, {"measurement": "ability to inhibit larvae from reaching the adult stage, in words", "setting": "[1]; 400 h UV", "value": "fully active after 400 h of irradiation"}, {"measurement": "Relative activity, inhibiting adult development", "setting": "[1]; 400 h UV", "value": 100.0, "unit": "%"}, {"measurement": "Number Pupae", "setting": "[2]; [6]", "value": 10}, {"measurement": "Number Unsuccessful Larvae-Pupae", "setting": "[2]; [6]", "value": 6}, {"measurement": "Number Unsuccessful Pupae-Adult", "setting": "[2]; [6]", "value": 1}, {"measurement": "inhibition of pupation, in words", "setting": "[2]; [7]", "value": "equally effective in inhibiting pupation"}, {"measurement": "mortality at 0.001 mg", "setting": "[2]", "value": 100, "unit": "%"}, {"measurement": "Relative activity, inhibiting pupal development", "setting": "[3]; 15 h UV", "value": 99.4, "unit": "%"}, {"measurement": "Relative activity, inhibiting pupal development", "setting": "[3]; 30 h UV", "value": 103.7, "unit": "%"}, {"measurement": "Relative activity, inhibiting pupal development", "setting": "[3]; 90 h UV", "value": 99.7, "unit": "%"}, {"measurement": "ability to inhibit pupation, in words", "setting": "[3]; 200 h UV", "value": "most active in inhibiting pupation"}, {"measurement": "Relative activity, inhibiting pupal development", "setting": "[3]; 200 h UV", "value": 108.0, "unit": "%"}, {"measurement": "ability to inhibit pupation, in words", "setting": "[3]; 400 h UV", "value": "its activity declined after 400 h of exposure, it was still more active than the other test compounds"}, {"measurement": "loss in activity with degradation, in words", "setting": "[3]; 400 h UV", "value": "some loss in activity"}, {"measurement": "Relative activity, inhibiting pupal development", "setting": "[3]; 400 h UV", "value": 69.1, "unit": "%"}, {"measurement": "LC50", "setting": "[4]", "value": 0.3, "unit": "µg/mL"}, {"measurement": "growth inhibitory and lethal activity, in words", "setting": "[4]; relative to azadirachtin", "value": "retaining full activity; also recorded: fully active"}]}, {"molecule": "COC(=O)C1(O)OCC23C(OC(=O)C(C)(O)C(C)O)CC(OC(C)=O)C4(C(=O)OC)COC(C42)C(O)C(C)(C24OC2(C)C2CC4OC4OCCC42O)C13", "note": "(centres unmarked) [Compound 9, 2',3'-dihydroxy-2',3'22,23-tetrahydroazadirachtin]", "values": [{"measurement": "LC50", "setting": "[4]", "value": 42, "unit": "µg/mL"}]}, {"molecule": "C/C=C(\\C)C(=O)O[C@@H]1C[C@H](O)[C@]23CO[C@H](C(=O)OC)[C@H]2[C@](C)([C@]24O[C@@]2(C)[C@H]2C[C@@H]4O[C@@H]4OC=C[C@@]42O)[C@H](O)[C@@H]2OC[C@@]1(C(=O)OC)[C@H]23", "note": "[deacetylazadirachtinol]", "values": [{"measurement": "fold less active than azadirachtin as insect growth inhibitor", "setting": "insect", "value": "about 2.5 fold"}, {"measurement": "ecdysis inhibitory activity, in words", "setting": "insects", "value": "the same ecdysis inhibitory activity"}]}]}
